What was measured:
Test in all cases: apparent dissociation constant (pKDapp, Kinobeads competition, Cheng-Prusoff corrected) (-log10 M); higher = tighter binding
Conditions in all cases: affinity matrix / lysate: Kinobeads, mixed HEK293/K-562/placenta lysate
AURKC = AURKC (UniProt Q9UQB9)
CSNK1G2 = CSNK1G2 (UniProt P78368)
PRKACB = PRKACB (UniProt P22694)
RP6-213H19 1 = molecular target: RP6-213H19 1
MAP4K1 = MAP4K1 (UniProt Q92918)
MAPK10 = MAPK10 (UniProt P53779)
UHMK1 = UHMK1 (UniProt Q8TAS1)
Chain of UHMK1 (Q8TAS1 whole entry): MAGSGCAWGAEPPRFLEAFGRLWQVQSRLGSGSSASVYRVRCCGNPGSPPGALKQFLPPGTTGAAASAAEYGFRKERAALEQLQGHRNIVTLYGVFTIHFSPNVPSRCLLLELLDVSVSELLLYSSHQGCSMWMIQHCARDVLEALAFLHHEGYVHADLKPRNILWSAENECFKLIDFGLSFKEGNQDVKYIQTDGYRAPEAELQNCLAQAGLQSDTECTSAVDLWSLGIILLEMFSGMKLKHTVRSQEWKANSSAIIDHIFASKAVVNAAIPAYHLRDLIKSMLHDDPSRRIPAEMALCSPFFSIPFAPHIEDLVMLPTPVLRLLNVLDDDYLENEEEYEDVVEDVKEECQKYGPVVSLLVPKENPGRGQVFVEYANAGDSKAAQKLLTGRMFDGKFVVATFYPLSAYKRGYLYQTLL

MAP3K11 = MAP3K11 (UniProt Q16584)
ADCK5 = ADCK5 (UniProt Q3MIX3)
CSNK1G3 = CSNK1G3 (UniProt Q9Y6M4)
DDR2 = DDR2 (UniProt Q16832)
RIPK4 = RIPK4 (UniProt P57078)
CAMK1D = CAMK1D (UniProt Q8IU85)
WNK1 = WNK1 (UniProt Q9H4A3)
Chain of WNK1 (Q9H4A3 whole entry, looked up): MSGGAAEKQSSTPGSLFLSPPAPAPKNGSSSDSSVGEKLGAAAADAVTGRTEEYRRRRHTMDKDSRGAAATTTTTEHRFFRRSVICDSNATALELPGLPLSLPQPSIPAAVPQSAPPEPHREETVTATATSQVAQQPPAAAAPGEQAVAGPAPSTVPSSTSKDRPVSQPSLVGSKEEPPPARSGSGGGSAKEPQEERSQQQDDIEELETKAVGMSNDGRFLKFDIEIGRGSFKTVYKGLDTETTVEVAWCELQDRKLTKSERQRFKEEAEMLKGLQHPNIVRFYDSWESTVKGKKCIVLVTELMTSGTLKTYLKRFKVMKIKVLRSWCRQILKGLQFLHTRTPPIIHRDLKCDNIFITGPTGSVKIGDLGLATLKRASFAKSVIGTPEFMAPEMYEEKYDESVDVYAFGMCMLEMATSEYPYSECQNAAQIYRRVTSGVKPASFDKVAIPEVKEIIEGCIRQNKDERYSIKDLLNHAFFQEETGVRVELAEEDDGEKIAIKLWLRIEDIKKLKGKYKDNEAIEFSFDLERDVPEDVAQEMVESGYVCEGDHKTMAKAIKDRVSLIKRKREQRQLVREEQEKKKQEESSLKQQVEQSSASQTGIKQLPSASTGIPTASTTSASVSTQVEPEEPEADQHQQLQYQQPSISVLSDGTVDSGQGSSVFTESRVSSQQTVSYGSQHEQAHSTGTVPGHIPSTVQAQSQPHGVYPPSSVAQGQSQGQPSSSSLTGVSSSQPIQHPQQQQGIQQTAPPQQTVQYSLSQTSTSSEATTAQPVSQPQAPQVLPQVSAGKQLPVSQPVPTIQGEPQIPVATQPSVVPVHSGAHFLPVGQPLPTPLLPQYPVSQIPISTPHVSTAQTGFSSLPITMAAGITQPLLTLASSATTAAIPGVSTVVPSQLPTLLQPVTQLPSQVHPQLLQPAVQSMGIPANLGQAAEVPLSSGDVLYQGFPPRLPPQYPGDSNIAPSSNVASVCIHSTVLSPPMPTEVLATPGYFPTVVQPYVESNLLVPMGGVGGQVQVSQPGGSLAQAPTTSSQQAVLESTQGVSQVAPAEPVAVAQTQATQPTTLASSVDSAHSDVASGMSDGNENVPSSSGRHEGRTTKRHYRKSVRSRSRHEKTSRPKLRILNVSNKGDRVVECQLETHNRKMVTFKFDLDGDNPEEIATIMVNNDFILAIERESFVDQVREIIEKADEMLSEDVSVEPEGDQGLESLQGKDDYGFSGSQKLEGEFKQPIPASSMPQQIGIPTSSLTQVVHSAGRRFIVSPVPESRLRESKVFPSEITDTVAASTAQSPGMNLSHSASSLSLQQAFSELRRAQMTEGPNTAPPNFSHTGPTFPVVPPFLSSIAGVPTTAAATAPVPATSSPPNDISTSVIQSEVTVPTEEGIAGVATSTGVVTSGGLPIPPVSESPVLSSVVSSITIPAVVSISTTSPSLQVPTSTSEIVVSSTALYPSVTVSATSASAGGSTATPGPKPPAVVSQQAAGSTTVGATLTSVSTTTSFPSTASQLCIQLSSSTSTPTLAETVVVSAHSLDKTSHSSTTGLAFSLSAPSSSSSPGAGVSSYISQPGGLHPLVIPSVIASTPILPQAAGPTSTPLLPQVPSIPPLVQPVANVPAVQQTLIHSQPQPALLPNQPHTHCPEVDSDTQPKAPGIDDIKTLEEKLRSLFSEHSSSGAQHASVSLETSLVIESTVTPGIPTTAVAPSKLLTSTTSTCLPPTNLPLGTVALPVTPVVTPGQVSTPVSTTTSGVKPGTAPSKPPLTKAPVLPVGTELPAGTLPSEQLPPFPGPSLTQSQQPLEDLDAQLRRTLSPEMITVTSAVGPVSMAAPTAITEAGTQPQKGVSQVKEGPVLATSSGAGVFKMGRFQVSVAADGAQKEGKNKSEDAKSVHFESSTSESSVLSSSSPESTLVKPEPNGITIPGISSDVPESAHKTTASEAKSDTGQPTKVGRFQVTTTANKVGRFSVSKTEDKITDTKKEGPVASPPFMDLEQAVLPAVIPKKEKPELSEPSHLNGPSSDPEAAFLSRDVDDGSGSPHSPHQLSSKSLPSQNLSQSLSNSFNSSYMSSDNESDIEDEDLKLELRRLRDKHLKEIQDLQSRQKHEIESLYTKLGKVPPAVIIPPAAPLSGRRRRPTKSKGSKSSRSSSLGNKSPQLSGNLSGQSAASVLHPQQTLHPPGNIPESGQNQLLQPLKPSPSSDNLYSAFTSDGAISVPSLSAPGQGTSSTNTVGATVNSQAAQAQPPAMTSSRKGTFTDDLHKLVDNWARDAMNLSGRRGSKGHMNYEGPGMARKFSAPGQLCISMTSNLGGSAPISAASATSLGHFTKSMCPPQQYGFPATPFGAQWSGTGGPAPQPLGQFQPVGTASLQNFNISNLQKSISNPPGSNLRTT

PAK6 = PAK6 (UniProt Q9NQU5)
Chain of PAK6 (Q9NQU5 whole entry, looked up): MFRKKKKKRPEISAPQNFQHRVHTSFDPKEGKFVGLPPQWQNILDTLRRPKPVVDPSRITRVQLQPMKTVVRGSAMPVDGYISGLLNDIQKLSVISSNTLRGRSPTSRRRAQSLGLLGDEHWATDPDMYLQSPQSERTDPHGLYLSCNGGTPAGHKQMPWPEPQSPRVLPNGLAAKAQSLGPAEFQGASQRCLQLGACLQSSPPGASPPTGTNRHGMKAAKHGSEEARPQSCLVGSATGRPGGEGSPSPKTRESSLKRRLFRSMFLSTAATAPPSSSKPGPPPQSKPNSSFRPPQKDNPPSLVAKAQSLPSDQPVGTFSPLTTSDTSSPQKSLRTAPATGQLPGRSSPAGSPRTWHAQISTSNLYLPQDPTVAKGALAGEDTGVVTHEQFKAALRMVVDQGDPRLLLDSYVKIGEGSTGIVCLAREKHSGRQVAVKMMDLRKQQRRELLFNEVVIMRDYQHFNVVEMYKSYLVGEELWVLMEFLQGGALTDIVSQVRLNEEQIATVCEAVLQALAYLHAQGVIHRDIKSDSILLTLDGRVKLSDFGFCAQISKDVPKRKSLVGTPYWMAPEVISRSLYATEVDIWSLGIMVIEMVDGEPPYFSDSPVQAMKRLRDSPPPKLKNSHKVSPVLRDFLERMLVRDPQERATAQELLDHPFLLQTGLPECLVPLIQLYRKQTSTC

LCK = LCK (UniProt P06239)
Chain of LCK (P06239 whole entry, looked up): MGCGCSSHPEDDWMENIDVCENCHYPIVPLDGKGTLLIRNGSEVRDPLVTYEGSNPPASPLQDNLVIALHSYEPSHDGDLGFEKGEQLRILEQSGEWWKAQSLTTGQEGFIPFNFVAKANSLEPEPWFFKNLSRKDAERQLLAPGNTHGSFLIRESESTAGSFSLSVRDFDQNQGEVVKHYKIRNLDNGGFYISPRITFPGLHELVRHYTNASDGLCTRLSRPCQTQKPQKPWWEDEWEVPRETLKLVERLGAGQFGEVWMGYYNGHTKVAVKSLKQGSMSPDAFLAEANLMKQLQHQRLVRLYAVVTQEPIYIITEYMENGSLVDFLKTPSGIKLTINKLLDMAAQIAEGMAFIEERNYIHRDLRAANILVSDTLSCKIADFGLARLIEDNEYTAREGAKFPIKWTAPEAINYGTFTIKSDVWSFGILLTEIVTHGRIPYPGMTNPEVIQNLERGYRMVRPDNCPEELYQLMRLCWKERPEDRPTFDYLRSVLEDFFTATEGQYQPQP

BRD4 = BRD4 (UniProt O60885)
DYRK2 = DYRK2 (UniProt Q92630)
TLK1 = TLK1 (UniProt Q9UKI8)

Measured: apparent dissociation constant (-log10 M)

Chain of AURKC (Q9UQB9 whole entry): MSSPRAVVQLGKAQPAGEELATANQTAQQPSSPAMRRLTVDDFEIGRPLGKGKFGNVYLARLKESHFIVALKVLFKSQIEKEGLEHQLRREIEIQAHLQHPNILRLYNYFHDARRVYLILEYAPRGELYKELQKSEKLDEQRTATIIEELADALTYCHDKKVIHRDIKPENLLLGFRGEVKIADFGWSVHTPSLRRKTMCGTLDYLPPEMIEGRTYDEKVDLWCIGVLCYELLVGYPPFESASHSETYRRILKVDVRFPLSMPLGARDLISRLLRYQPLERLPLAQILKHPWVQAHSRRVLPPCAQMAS
Chain of CSNK1G2 (P78368 whole entry, looked up): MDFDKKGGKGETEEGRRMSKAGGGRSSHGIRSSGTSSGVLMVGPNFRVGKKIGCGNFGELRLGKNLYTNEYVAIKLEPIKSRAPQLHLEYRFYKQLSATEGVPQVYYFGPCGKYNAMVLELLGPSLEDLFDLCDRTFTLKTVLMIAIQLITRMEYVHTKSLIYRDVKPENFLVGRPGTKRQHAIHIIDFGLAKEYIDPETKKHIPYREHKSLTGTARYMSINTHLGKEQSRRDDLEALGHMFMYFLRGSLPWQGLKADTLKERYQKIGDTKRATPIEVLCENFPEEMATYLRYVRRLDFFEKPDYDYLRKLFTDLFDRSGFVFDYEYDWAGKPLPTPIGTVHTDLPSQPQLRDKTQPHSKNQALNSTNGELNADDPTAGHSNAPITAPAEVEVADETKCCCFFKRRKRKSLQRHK

COc1ccc(-c2ccc3c(N4CCOC[C@@H]4C)nc(N4CCOC[C@@H]4C)nc3n2)cc1CO [AZD8055]
< 6: AURKC | CSNK1G2

CCNC(=O)Nc1ccc(-c2nc(N3CCOC[C@@H]3C)c3c(n2)C(C)(C)S(=O)(=O)C3)cc1 [CZ415]
not listed: AURKC | CSNK1G2
< 6: all other assays above

Source: the supplement of paper PMC6315032
